Experimental findings from patent publication US10865391B2, “Glutamate dehydrogenase mutants and their application in preparation of L-phosphinothricin” (ZHEJIANG UNIVERSITY, priority 2018, dated 2020) are described below.

Type in all cases: biochemical, Pseudomonas putida
Assay [1] concerns PpGluDH-A167G. The assay can be described thus: Catalytic activity toward other keto acid substrates by spectrophotometry, A167G mutant. The following applies: keto acid as substrate; for Specific activity (U/mg) A167G: PpGluDH-A167G; for Catalytic activity of PpGluDH-A167G compared with the wild type: result in words.
The test system of assay [2] is PpGluDH-V378A. The assay can be described thus: Catalytic activity toward other keto acid substrates by spectrophotometry, V378A mutant. As to conditions: keto acid as substrate; for Specific activity (U/mg) V378A: PpGluDH-V378A; for Catalytic activity of PpGluDH-V378A compared with the wild type: result in words.
Assay [3] concerns wild type PpGluDH. The assay can be described thus: Catalytic activity toward other keto acid substrates by spectrophotometry, wild type. The following applies: keto acid as substrate.

Structures are written as SMILES.

Regarding `O=C(O)CCC(=O)C(=O)O` [1a, 2-Ketoglutaric acid], in assay [1], the “Specific activity (U/mg) A167G” value is recorded as 314.41 U/mg and the “Catalytic activity of PpGluDH-A167G compared with the wild type” value is “improved catalytic activity”. In addition, in assay [2], the “Specific activity (U/mg) V378A” value worked out at 268.48 U/mg and the “Catalytic activity of PpGluDH-V378A compared with the wild type” value is “improved catalytic activity”. For the same compound, the “Specific activity (U/mg) Wild” value in assay [3] is recorded as 189.05 U/mg.
Turning to `O=C(O)C(=O)CCc1ccccc1` [12a, 2-Oxo-4-phenylbutyric acid], in assay [1], the “Specific activity (U/mg) A167G” value turned out to be 0.33 U/mg and the “Catalytic activity of PpGluDH-A167G compared with the wild type” value is “improved to some extent”. Also, in assay [2], the “Specific activity (U/mg) V378A” value is 0.04 U/mg and the “Catalytic activity of PpGluDH-V378A compared with the wild type” value is listed as “decreased”. Besides, in assay [3], the “Specific activity (U/mg) Wild” value is 0.08 U/mg.
In the case of `CCC(=O)C(=O)O` [3a, 2-Ketobutyric acid], in assay [1], the “Specific activity (U/mg) A167G” value was 0.09 U/mg. Moreover, the “Specific activity (U/mg) V378A” value in assay [2] amounted to 0.34 U/mg. For the same compound, the “Specific activity (U/mg) Wild” value in assay [3] was determined as 4.93 U/mg.
In the same order, the values of `O=C(O)C(=O)c1ccccc1` [10a, Phenylglyoxylic acid] are 0.01 U/mg, 0.01 U/mg and 0.04 U/mg.
Consider `CCCCC(=O)C(=O)O` [9a, 2-Ketohexanoic acid], for which, in assay [1], the “Specific activity (U/mg) A167G” value is given as 1.23 U/mg and the “Catalytic activity of PpGluDH-A167G compared with the wild type” value is on record as “improved catalytic activity”. In addition, in assay [2], the “Specific activity (U/mg) V378A” value came out at 1.49 U/mg and the “Catalytic activity of PpGluDH-V378A compared with the wild type” value was “improved catalytic activity”. Also, the “Specific activity (U/mg) Wild” value in assay [3] stood at 0.71 U/mg.
For the compound `CCC(C)C(=O)C(=O)O` (stereo not drawn) [7a, 3-Methyl-2-Oxovaleric acid], in assay [1], the “Specific activity (U/mg) A167G” value is on record as <0.01 U/mg. The “Specific activity (U/mg) V378A” value in assay [2] amounted to 0.03 U/mg. The “Specific activity (U/mg) Wild” value in assay [3] was found to be 0.07 U/mg.
The matching figures for `CC(C)CC(=O)C(=O)O` [8a, 4-Methyl-2-Oxovaleric acid]: 0.01 U/mg, 0.03 U/mg and 0.05 U/mg.
Regarding `CCCC(=O)C(=O)O` [6a, 2-Oxovaleric acid], in assay [1], the “Specific activity (U/mg) A167G” value amounted to 1.21 U/mg. Also, the “Specific activity (U/mg) V378A” value in assay [2] is reported as 2.37 U/mg. Besides, in assay [3], the “Specific activity (U/mg) Wild” value turned out to be 6.39 U/mg.
In the same order, the values of `CC(=O)C(=O)O` [2a, Pyruvic acid] are <0.01 U/mg, 0.01 U/mg and 0.15 U/mg.
The matching figures for `CC(C)C(=O)C(=O)O` [4a, 3-Methyl-2-oxobutanoic acid]: <0.01 U/mg, 0.04 U/mg and 0.37 U/mg.
In the same order, the values of `O=C(O)C(=O)Cc1ccc(O)cc1` [13a, 4-hydroxyphenylpyruvic acid] are <0.01 U/mg, <0.01 U/mg and 0.02 U/mg.
On to `O=C(O)C(=O)Cc1ccccc1` [11a, Phenylpyruvic acid], for which the “Specific activity (U/mg) A167G” value in assay [1] is <0.01 U/mg. Further, in assay [2], the “Specific activity (U/mg) V378A” value is recorded as <0.01 U/mg. Moreover, the “Specific activity (U/mg) Wild” value in assay [3] is <0.01 U/mg.
